Experimental data as given in ChEMBL document CHEMBL4138293, “Modified Abietane Diterpenoids from Whole Plants of Selaginella moellendorffii” (J Nat Prod, 2018).
Active and inactive are the calls of the source. No cut-off for these calls is given here.

Columns and labels:
Type in all cases: functional, cell-based
[1] = system: SMMC-7721; assay: Growth inhibition of human SMMC7721 cells after 48 hrs by MTS assay
[2] = system: SW480; assay: Growth inhibition of human SW480 cells after 48 hrs by MTS assay
[3] = system: HL-60; assay: Growth inhibition of human HL60 cells after 48 hrs by MTS assay
[4] = system: MCF7; assay: Growth inhibition of human MCF7 cells after 48 hrs by MTS assay
[5] = system: A549; assay: Growth inhibition of human A549 cells after 48 hrs by MTS assay

Compound: CC(=O)O[C@H]1C(=O)[C@@]2(C)[C@H]([C@H](OC(=O)c3ccccc3)[C@]3(O)C[C@H](OC(=O)[C@H](O)[C@@H](NC(=O)c4ccccc4)c4ccccc4)C(C)=C1C3(C)C)[C@]1(OC(C)=O)CO[C@@H]1C[C@@H]2O [PACLITAXEL]
- IC50 ([1]; SMMC-7721, 48 h): < 8 nM
- IC50 ([2]; SW480, 48 h): < 8 nM
- IC50 ([3]; HL-60, 48 h): < 8 nM

Compound: C=C1[C@@H]2CC(=O)c3cc(C(C)C)c(O)cc3[C@@]2(C)CC(=O)[C@]12CCC1=C(C2)C2=CC(=O)c3cc(C(C)C)c(O)cc3[C@@]2(C)C[C@@H]1O
- growth inhibition (GI) [4]: inactive
- growth inhibition (GI) [1]: inactive
- growth inhibition (GI) [2]: inactive
- growth inhibition (GI) [3]: inactive
- growth inhibition (GI) [5]: inactive

Compound: CC(C)c1cc2c(cc1O)[C@@]1(C)CC[C@](C)(O)[C@@](O)(CO)[C@@H]1CC2=O
- growth inhibition (GI) [4]: inactive
- growth inhibition (GI) [1]: inactive
- growth inhibition (GI) [2]: inactive
- growth inhibition (GI) [3]: inactive
- growth inhibition (GI) [5]: inactive

Compound: C=C1[C@@H]2CC(=O)c3cc(C(C)C)c(O)cc3[C@@]2(C)CC(=O)[C@]12CCC1=C(C2)[C@@H]2CC(=O)c3cc(C(C)C)c(O)cc3[C@@]2(C)C[C@@H]1O
- IC50 ([4]; MCF7, 48 h): 9000 nM
- growth inhibition (GI) [1]: inactive
- growth inhibition (GI) [2]: inactive
- growth inhibition (GI) [3]: inactive
- growth inhibition (GI) [5]: inactive
